Molecular target: Btk enzyme (His-Btk) (Homo sapiens (Human), UniProt Q06187)
Test: Btk enzyme activity, IMAP fluorescence polarization assay (Assay Method A)
Procedure: Inhibition of kinase activity can be measured using the Immobilized Metal Assay for Phosphochemicals (IMAP) assay. IMAP is a homogeneous fluorescence polarization (FP) assay based on affinity capture of phosphorylated peptide substrates. IMAP uses fluorescein-labeled peptide substrates that, upon phosphorylation by a protein kinase, bind to so-called IMAP nanoparticles, which are derivatized with trivalent metal complexes.
Btk enzyme activity is measured using the IMAP (immobilized metal ion affinity-based fluorescence polarization) assay as outlined below.
Test compounds and Btk enzyme are pre-incubated 60 minutes at room temperature, before adding 5 μL/well of 200 nM Fluorescin labeled substrate peptide (Blk/Lyntide substrate, e.g. #R7188/#R7233, Molecular Devices) in KR-buffer. Final peptide substrate concentration in assay is 50 nM. […] Following incubation for 2 h at room temperature the enzyme reaction is stopped by adding 40 μL/well IMAP Progressive Binding Solution (according to suppliers (Molecular Devices) protocol using 75% 1× buffer A and 25% 1× buffer B with 1:600 Progressive Binding Solution). After 60 min incubation at room temperature in the dark the FP signal is read. […] Values are calculated as percentage of the difference in readout (ΔmPi) of the controls with and without ATP. EC50 values are determined by curve fitting of the experimental results using Activity Base.

Chain of Btk enzyme (His-Btk) (Q06187 whole entry): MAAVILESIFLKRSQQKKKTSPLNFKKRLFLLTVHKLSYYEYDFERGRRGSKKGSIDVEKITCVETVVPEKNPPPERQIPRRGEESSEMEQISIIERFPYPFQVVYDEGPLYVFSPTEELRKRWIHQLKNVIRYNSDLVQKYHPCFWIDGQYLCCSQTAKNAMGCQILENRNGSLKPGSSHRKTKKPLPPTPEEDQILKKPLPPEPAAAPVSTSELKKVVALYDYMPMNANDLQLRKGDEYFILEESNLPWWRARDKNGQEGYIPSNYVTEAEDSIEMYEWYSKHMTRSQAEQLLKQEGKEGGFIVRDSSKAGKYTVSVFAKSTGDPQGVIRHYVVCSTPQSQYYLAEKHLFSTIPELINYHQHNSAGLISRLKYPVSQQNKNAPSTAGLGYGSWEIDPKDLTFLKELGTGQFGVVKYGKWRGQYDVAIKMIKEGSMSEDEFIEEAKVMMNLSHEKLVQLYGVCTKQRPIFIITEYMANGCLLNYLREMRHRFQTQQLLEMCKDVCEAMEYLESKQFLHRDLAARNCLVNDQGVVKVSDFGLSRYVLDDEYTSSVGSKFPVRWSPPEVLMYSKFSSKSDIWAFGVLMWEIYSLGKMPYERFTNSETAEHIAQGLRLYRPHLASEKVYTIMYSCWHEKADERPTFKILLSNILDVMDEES

SMILES	EC50
CS(=O)(=O)N1CC(C(=O)N2CCC[C@@H](c3nc(-c4ccc(C(=O)Nc5cc(C(F)(F)F)ccn5)cc4)c4c(N)nccn34)C2)C1 [Example 73, (R)-4-(8-amino-3-(1-(1-(methylsulfonyl)azetidine-3-carbonyl)piperidin-3 yl)imidazo[1,5-a]pyrazin-1-yl)-N-(4-(trifluoromethyl)pyridin-2-yl)benzamide]	< 0.01 µM
Cc1noc(C)c1C(=O)N1CCC[C@@H](c2nc(-c3ccc(C(=O)Nc4cc(C(F)(F)F)ccn4)cc3)c3c(N)nccn23)C1 [Example 74, (R)-4-(8-amino-3-(1-(3,5-dimethylisoxazole-4-carbonyl)piperidin-3 yl)imidazo[1,5-a]pyrazin-1-yl)-N-(4-(trifluoromethyl)pyridin-2-yl)benzamide]	< 0.01 µM
Nc1nccn2c([C@@H]3CCCN(S(=O)(=O)C4CC4)C3)nc(-c3ccc(C(=O)Nc4cc(C(F)(F)F)ccn4)cc3)c12 [Example 75, (R)-4-(8-amino-3-(1-(cyclopropylsulfonyl)piperidin-3-yl)imidazo[1,5-a]pyrazin-1-yl)-N-(4-(trifluoromethyl)pyridin-2-yl)benzamide]	< 0.01 µM
CN(C)C1(C(=O)N2CCC[C@@H](c3nc(-c4ccc(C(=O)Nc5cc(C(F)(F)F)ccn5)cc4)c4c(N)nccn34)C2)CCC1 [Example 79, (R)-4-(8-amino-3-(1-(1-(dimethylamino)cyclobutane-carbonyl)piperidin-3-yl)imidazo[1,5-a]pyrazin-1-yl)-N-(4-(trifluoromethyl)pyridin-2-yl)benzamide]	0.01 to 0.1 µM
COCCOCCOCCOCCOCCOCCOCCOCCC(=O)N1CCC[C@@H](c2nc(-c3ccc(C(=O)Nc4cc(C(F)(F)F)ccn4)cc3)c3c(N)nccn23)C1 [Example 80, (R)-4-(3-(1-2,5,8,11,14,17,20,23-octaoxahexacosanepiperidin-3-yl)-8-aminoimidazo[1,5-a]pyrazin-1-yl)-N-(4-(trifluoromethyl)pyridin-2-yl)benzamide]	< 0.01 µM
Nc1nccn2c([C@@H]3CCCN(C(=O)C4(O)CCC4)C3)nc(-c3ccc(C(=O)Nc4cc(C(F)(F)F)ccn4)cc3)c12 [Example 81, (R)-4-(8-amino-3-(1-(1-hydroxycyclobutanecarbonyl)piperidin-3-yl)imidazo[1,5-a]pyrazin-1-yl)-N-(4-(trifluoromethyl)pyridin-2-yl)benzamide]	< 0.01 µM
Cc1noc([C@H]2C[C@@H]2C(=O)N2CCC[C@@H](c3nc(-c4ccc(C(=O)Nc5cc(C(F)(F)F)ccn5)cc4)c4c(N)nccn34)C2)n1 [Example 82, 4-(8-amino-3-((R)-1-((1S,2S)-2-(3-methyl-1,2,4-oxadiazol-5-yl)cyclopropanecarbonyl)piperidin-3-yl)imidazo[1,5-a]pyrazin-1-yl)-N-(4-(trifluoromethyl)pyridin-2-yl)benzamide]	< 0.01 µM
Nc1nccn2c([C@@H]3CCCN(C(=O)C4CC(F)(F)C4)C3)nc(-c3ccc(C(=O)Nc4cc(C(F)(F)F)ccn4)cc3)c12 [Example 83, (R)-4-(8-amino-3-(1-(3,3-difluorocyclobutanecarbonyl)piperidin-3-yl)imidazo[1,5-a]pyrazin-1-yl)-N-(4-(trifluoromethyl)pyridin-2-yl)benzamide]	< 0.01 µM
Nc1nccn2c([C@@H]3CCCN(C(=O)C4CN(C(=O)c5ccccc5)C4)C3)nc(-c3ccc(C(=O)Nc4cc(C(F)(F)F)ccn4)cc3)c12 [Example 84, (R)-4-(8-amino-3-(1-(1-benzoylazetidine-3-carbonyl)piperidin-3-yl)imidazo[1,5-a]pyrazin-1-yl)-N-(4-(trifluoromethyl)pyridin-2-yl)benzamide]	< 0.01 µM
Nc1nccn2c([C@@H]3CCCN(C(=O)[C@H]4CC(=O)N4)C3)nc(-c3ccc(C(=O)Nc4cc(C(F)(F)F)ccn4)cc3)c12 [Example 87, 4-(8-amino-3-((R)-1-((R)-4-oxoazetidine-2-carbonyl)piperidin-3-yl)imidazo[1,5-a]pyrazin-1-yl)-N-(4-(trifluoromethyl)pyridin-2-yl)benzamide]	< 0.01 µM
CC(C)C1CC(C(=O)N2CCC[C@@H](c3nc(-c4ccc(C(=O)Nc5cc(C(F)(F)F)ccn5)cc4)c4c(N)nccn34)C2)C1 (stereo partly drawn) [Example 89, (R)-4-(8-amino-3-(1-(3-isopropylcyclobutanecarbonyl)piperidin-3-yl)imidazo[1,5-a]pyrazin-1-yl)-N-(4-(trifluoromethyl)pyridin-2-yl)benzamide]	< 0.01 µM
Nc1nccn2c([C@@H]3CCCN(C(=O)C45CC(C4)C5)C3)nc(-c3ccc(C(=O)Nc4cc(C(F)(F)F)ccn4)cc3)c12 [Example 90, (R)-4-(8-amino-3-(1-(bicyclo[1.1.1]pentane-1-carbonyl)piperidin-3-yl)imidazo[1,5-a]pyrazin-1-yl)-N-(4-(trifluoromethyl)pyridin-2-yl)benzamide]	< 0.01 µM
C=CC1(C(=O)N2CCC[C@@H](c3nc(-c4ccc(C(=O)Nc5cc(C(F)(F)F)ccn5)cc4)c4c(N)nccn34)C2)COC1 [Example 91, (R)-4-(8-amino-3-(1-(3-vinyloxetane-3-carbonyl)piperidin-3-yl)imidazo[1,5-a]pyrazin-1-yl)-N-(4-(trifluoromethyl)pyridin-2-yl)benzamide]	< 0.01 µM
Nc1nccn2c([C@@H]3CCCN(C(=O)CC4CC4)C3)nc(-c3ccc(C(=O)Nc4ccccn4)cc3)c12 [Example 92, (R)-4-(8-amino-3-(1-(2-cyclopropylacetyl)piperidin-3 yl)imidazo[1,5-a]pyrazin-1-yl)-N-(pyridin-2-yl)benzamide]	< 0.01 µM
CCC(F)(F)C(=O)N1CCC[C@@H](c2nc(-c3ccc(C(=O)Nc4ccccn4)cc3)c3c(N)nccn23)C1 [Example 93, (R)-4-(8-amino-3-(1-(2,2-difluorobutanoyl)piperidin-3-yl)imidazo[1,5-a]pyrazin-1-yl)-N-(pyridin-2-yl)benzamide]	0.01 to 0.1 µM
Nc1nccn2c([C@@H]3CCCN(C(=O)C4(O)CC4)C3)nc(-c3ccc(C(=O)Nc4ccccn4)cc3)c12 [Example 94, (R)-4-(8-amino-3-(1-(1-hydroxycyclopropanecarbonyl)piperidin-3-yl)imidazo[1,5-a]pyrazin-1-yl)-N-(pyridin-2-yl)benzamide]	0.01 to 0.1 µM

Continued, values first:

EC50	SMILES
< 0.01 µM	COCCOCCC(=O)N1CCC[C@@H](c2nc(-c3ccc(C(=O)Nc4cc(C(F)(F)F)ccn4)cc3)c3c(N)nccn23)C1 [Example 68, (R)-4-(8-amino-3-(1-(3-(2-methoxyethoxy)propanoyl)piperidin-3-yl)imidazo[1,5-a]pyrazin-1-yl)-N-(4-(trifluoromethyl)pyridin-2-yl)benzamide]
< 0.01 µM	CSCCC(=O)N1CCC[C@@H](c2nc(-c3ccc(C(=O)Nc4cc(C(F)(F)F)ccn4)cc3)c3c(N)nccn23)C1 [Example 69, (R)-4-(8-amino-3-(1-(3-(methylthio)propanoyl)piperidin-3-yl)imidazo[1,5-a]pyrazin-1 yl)-N-(4-(trifluoromethyl)pyridin-2-yl)benzamide]
< 0.01 µM	CC1(C(=O)N2CCC[C@@H](c3nc(-c4ccc(C(=O)Nc5cc(C(F)(F)F)ccn5)cc4)c4c(N)nccn34)C2)CCC1 [Example 70, (R)-4-(8-amino-3-(1-(1-methylcyclobutanecarbonyl)piperidin-3-yl)imidazo[1,5-a]pyrazin-1-yl)-N-(4-(trifluoromethyl)pyridin-2-yl)benzamide]
< 0.01 µM	CC(C)(O)CC(=O)N1CCC[C@@H](c2nc(-c3ccc(C(=O)Nc4cc(C(F)(F)F)ccn4)cc3)c3c(N)nccn23)C1 [Example 71, (R)-4-(8-amino-3-(1-(3-hydroxy-3-methylbutanoyl)piperidin-3-yl)imidazo[1,5-a]pyrazin-1-yl)-N-(4-(trifluoromethyl)pyridin-2-yl)benzamide]
< 0.01 µM	Nc1nccn2c([C@@H]3CCCN(C(=O)C(F)(F)F)C3)nc(-c3ccc(C(=O)Nc4cc(C(F)(F)F)ccn4)cc3)c12 [Example 72, (R)-4-(8-amino-3-(1-(2,2,2-trifluoroacetyl)piperidin-3-yl)imidazo[1,5-a]pyrazin-1-yl)-N-(4-(trifluoromethyl)pyridin-2-yl)benzamide]
< 0.01 µM	CC(C)(C)C(=O)N1CCC[C@@H](c2nc(-c3ccc(C(=O)Nc4cc(C(F)(F)F)ccn4)cc3)c3c(N)nccn23)C1 [Example 76, (R)-4-(8-amino-3-(1-pivaloylpiperidin-3-yl)imidazo[1,5-a]pyrazin-1-yl)-N-(4-(trifluoromethyl)pyridin-2-yl)benzamide]
< 0.01 µM	CS(=O)(=O)CCC(=O)N1CCC[C@@H](c2nc(-c3ccc(C(=O)Nc4cc(C(F)(F)F)ccn4)cc3)c3c(N)nccn23)C1 [Example 77, (R)-4-(8-amino-3-(1-(3-(methylsulfonyl)propanoyl)piperidin-3-yl)imidazo[1,5-a]pyrazin-1-yl)-N-(4-(trifluoromethyl)pyridin-2-yl)benzamide]
< 0.01 µM	CC(C)(CO)C(=O)N1CCC[C@@H](c2nc(-c3ccc(C(=O)Nc4cc(C(F)(F)F)ccn4)cc3)c3c(N)nccn23)C1 [Example 78, (R)-4-(8-amino-3-(1-(3-hydroxy-2,2-dimethylpropanoyl)piperidin-3-yl)imidazo[1,5-a]pyrazin-1-yl)-N-(4-(trifluoromethyl)pyridin-2-yl)benzamide]
< 0.01 µM	NCCOCCOCCOCCOCCC(=O)N1CCC[C@@H](c2nc(-c3ccc(C(=O)Nc4cc(C(F)(F)F)ccn4)cc3)c3c(N)nccn23)C1 [Example 85, (R)-4-(8-amino-3-(1-(1-amino-3,6,9,12-tetraoxapentadecane)piperidin-3-yl)imidazo[1,5-a]pyrazin-1-yl)-N-(4-(trifluoromethyl)pyridin-2-yl)benzamide]
< 0.01 µM	Nc1nccn2c([C@@H]3CCCN(C(=O)C4CSC4)C3)nc(-c3ccc(C(=O)Nc4cc(C(F)(F)F)ccn4)cc3)c12 [Example 86, (R)-4-(8-amino-3-(1-(thietane-3-carbonyl)piperidin-3-yl)imidazo[1,5-a]pyrazin-1-yl)-N-(4-(trifluoromethyl)pyridin-2-yl)benzarnide]
0.01 to 0.1 µM	CN(C)C1(C(=O)N2CCC[C@@H](c3nc(-c4ccc(C(=O)Nc5cc(C(F)(F)F)ccn5)cc4)c4c(N)nccn34)C2)CC1 [Example 88, (R)-4-(8-amino-3-(1-(1-(dimethylamino)cyclopropane-carbonyl)piperidin-3 yl)imidazo[1,5-a]pyrazin-1-yl)-N-(4-(trifluoromethyl)pyridin-2-yl)benzamide]

Source: patent US9718828B2 (MERCK SHARP & DOHME CORP., priority 2011, dated 2017)
